“Also recorded” adds a separate entry of the source.
Legend:
male Wister rats = experiment: Rat restraint stress-induced defecation model; assay type: in vivo; conditions: for evacuation suppressing action: 10 mg/kg p.o., used independently, 10 mg/kg; for number of excreted stools, comparison with the non-administration group: each of the 1, 3 and 10 mg/kg administration groups, N=10
Method: IBS-treating effect of the medicine of the invention was evaluated using a test method in which the amount of evacuations is measured by applying a restriction stress to rats (cf. J. Pharmacol. Exp. Ther. (1992) 261, 297-303). […] Each drug to be tested was administered to male Wister rats (body weight 250 to 320 g, 10 animals for each group), and a restraint stress was loaded 30 minutes thereafter. A restraint stress cage (KN-468, 265 mm in width×95 mm in length×200 mm in height, mfd. by Natsume Seisakusho, Tokyo) was used for the restraint stress loading, and the number of excreted stool was counted 1 hour after the stress loading. […] The control means the number of stools at the time of no stress loading, namely the reference value.

5-HT2B receptor = 5-HT2B receptor (Homo sapiens, UniProt P41595); conditions: in comparison with 5-HT1A, 5-HT1B, 5-HT2A, 5-HT2C, 5-HT3, 5-HT6, 5-HT7, α1, M1 and D2 receptors; cited from earlier work
α1 receptor = experiment: Affinity for other receptors: α1; assay type: binding

Sequence of 5-HT2B receptor (P41595 whole entry): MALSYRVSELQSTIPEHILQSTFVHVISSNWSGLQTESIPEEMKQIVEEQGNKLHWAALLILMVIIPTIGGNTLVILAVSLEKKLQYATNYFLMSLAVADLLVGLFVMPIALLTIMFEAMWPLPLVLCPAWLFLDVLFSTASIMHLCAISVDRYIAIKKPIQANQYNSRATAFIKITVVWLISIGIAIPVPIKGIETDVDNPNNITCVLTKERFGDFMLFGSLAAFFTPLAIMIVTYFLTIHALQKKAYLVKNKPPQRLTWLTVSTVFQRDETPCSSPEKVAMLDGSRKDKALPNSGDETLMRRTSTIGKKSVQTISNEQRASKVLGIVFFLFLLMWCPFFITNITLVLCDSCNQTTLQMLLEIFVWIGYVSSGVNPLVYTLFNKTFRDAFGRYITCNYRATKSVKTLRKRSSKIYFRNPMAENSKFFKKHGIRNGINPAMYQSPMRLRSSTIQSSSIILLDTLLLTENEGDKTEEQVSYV

SMILES | evacuation suppressing action (male Wister rats) | number of excreted stools, comparison with the non-administration group (male Wister rats) | other results
CC(C)c1cc(-c2ccc(F)c3ccccc23)nc(N)n1 [RS-127445, 2-amino-4-(4-fluoronaphtho-1-yl)-6-isopropylpyrimidine] | did not show the evacuation suppressing action; also recorded: do not show the reaction | Significant difference was not found | selectivity for 5-HT2B receptor (5-HT2B receptor): ≥ 1,000 times
Cl.NC(N)=NC(=O)c1ccc2c(c1)C1(CCCO1)c1ccccc1-2 (single isomer, unassigned) [Production Example 60b] |  |  | evacuation suppression action (male Wister rats; 3 mg/kg (p.o.)): suppression action similar to the level of Production Example 3
CC1CCN(CC[C@H]2CCCN2S(=O)(=O)c2cccc(O)c2)CC1 [SB-269970, (R)-3-(2-(2-(4-methylpiperidine-1-yl)ethyl)pyrrolidine-1-sulfonyl)phenol] | did not show the evacuation suppressing action; also recorded: do not show the reaction | Significant difference was not found | 
Cl.NC(N)=NC(=O)c1ccc2c(c1)C(O)c1ccccc1-2 (centres unmarked) [Production Example 3, N-(diaminomethylene)-9-hydroxy-9H-fluorene-2-carboxamide hydrochloride] |  |  | IC50 (α1 receptor): ≥ 1 µM; evacuation suppression action (male Wister rats; 3 mg/kg intraperitoneally (i.p.)): significant suppression action

Reference: patent US20080171788A1, “Medicament For Irritable Bowel Syndrome” (priority 2005, published 2008)
